The results in this text go back to the supplement of paper PMC11208160.
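Also: IS621 bridge recombinase in Escherichia coli cells against a fixed T5 target plasmid.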

This series in a line: recombinant UMI read abundance after kanamycin selection (control-corrected) (log10(CPM+1)); higher = more efficient recombination; extreme values may be limits of the assay; sequences stand for … in AGTGCAGAGAAAATCGGCCAGTTTTCTCTGCCTGCAGTCCGCATGCCGTGGGACCCCTTGGGTTCTAACCTGTTGCCTAGATTTATGCAGCGGACTGCCTTTCTCCCAAAGTGATAAACCGG…AGGTTGGTTTCACT; site = the 11-nt donor. The procedure:
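Pooled E. coli donor-specificity screen for the IS621 bridge recombinase. Each library member carries a reprogrammed 11-nt donor and a full-length LE bridge RNA expressed in cis from the natural promoter, with a paired donor-binding loop (8-nt LDG + 4-nt RDG) and a target-binding loop fixed to T5. It is co-electroporated with a T5 target plasmid; recombinase is induced with 0.07 mM IPTG and recombinants are selected on kanamycin. UMIs are counted as CPM, averaged over two biological replicates and corrected by the unselected control. Molecule = full bridge RNA written as DNA, built from the T5 scaffold: LDG = donor specificity nt 1-8, RDG = reverse complement of nt 8-11.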
For the sequence “ACCGGACCATGGACCGGTTTTCCCGGTAATCCGTATTTGGC (site ACCGGACCTGC)”, the “recombinant UMI read abundance (log10)” value was 0. As for “ACCGGTCCATGGACCGGTTTTCCCGGTAATCCGTATTTGCA (site ACCGGTCCTTG)”, the figure is 0. The value for “ACCGGTCCATGGACCGGTTTTCCCGGTAATCCGTATTTGCA (site CCCGGTCCTTG)” was 0; that for “ACCGGTCCATGGACCGGTTTTCCCGGTAATCCGTATTTGCA (site GCCGGTCCTTG)” was 0. On to “ACCGGTCCATGGACCGGTTTTCCCGGTAATCCGTATTTGCA (site TCCGGTCCTTG)”, for which the “recombinant UMI read abundance (log10)” value came to 0. As for “ACCGGTCCATGGACCGGTTTTCCCGGTAATCCGTATTTGTT (site ACCGGTCCTAA)”, the figure is 0; as for “ACCTACGCATGGACCGGTTTTCCCGGTAATCCGTATTTGAA (site ACCTACGCTTT)”, 1.09; as for “ACCTAGACATGGACCGGTTTTCCCGGTAATCCGTATTTGAG (site ACCTAGACTCA)”, 0.226.

Turning to “ACCTAGACATGGACCGGTTTTCCCGGTAATCCGTATTTGAG (site ACCTAGACTCC)”, the “recombinant UMI read abundance (log10)” value turned out to be 0.241. Turning to “ACCTAGACATGGACCGGTTTTCCCGGTAATCCGTATTTGAG (site ACCTAGACTCG)”, the “recombinant UMI read abundance (log10)” value is 0.352.

Regarding “ACCTAGACATGGACCGGTTTTCCCGGTAATCCGTATTTGAG (site ACCTAGACTCT)”, the “recombinant UMI read abundance (log10)” value was 1.17. Regarding “ACCTAGACATGGACCGGTTTTCCCGGTAATCCGTATTTGGT (site ACCTAGACTAC)”, the “recombinant UMI read abundance (log10)” value was determined as 0.0673. The value for “ACCTAGACATGGACCGGTTTTCCCGGTAATCCGTATTTGGT (site ACCTAGACTCC)” was 0.0175; that for “ACCTAGACATGGACCGGTTTTCCCGGTAATCCGTATTTGGT (site ACCTAGACTGC)” was 0; that for “ACCTAGACATGGACCGGTTTTCCCGGTAATCCGTATTTGGT (site ACCTAGACTTC)” was 0.0137. On to “ACCTCAGCATGGACCGGTTTTCCCGGTAATCCGTATTTGGG (site AACTCAGCTCC)”, for which the “recombinant UMI read abundance (log10)” value was determined as 0.0172. As for “ACCTCAGCATGGACCGGTTTTCCCGGTAATCCGTATTTGGG (site ACCTCAGCTCC)”, the “recombinant UMI read abundance (log10)” value was found to be 0.00849.

With “ACCTCAGCATGGACCGGTTTTCCCGGTAATCCGTATTTGGG (site AGCTCAGCTCC)”, the “recombinant UMI read abundance (log10)” value stood at 0.0171. “ACCTCAGCATGGACCGGTTTTCCCGGTAATCCGTATTTGGG (site ATCTCAGCTCC)”: the “recombinant UMI read abundance (log10)” value came out at 0.0291. With “ACCTCGTCATGGACCGGTTTTCCCGGTAATCCGTATTTGAA (site ACCTCGTCTTT)”, the “recombinant UMI read abundance (log10)” value was found to be 0.5. Turning to “ACCTGAACATGGACCGGTTTTCCCGGTAATCCGTATTTGGC (site ACCTGAACTGC)”, the “recombinant UMI read abundance (log10)” value was 1.39. Turning to “ACCTTGCCATGGACCGGTTTTCCCGGTAATCCGTATTTGAA (site ACCTTGCCTTT)”, the “recombinant UMI read abundance (log10)” value is 0.00655. Turning to “ACGAAAACATGGACCGGTTTTCCCGGTAATCCGTATTTGCA (site ACGAAAACTTG)”, the “recombinant UMI read abundance (log10)” value came to 2.73. “ACGAAAACATGGACCGGTTTTCCCGGTAATCCGTATTTGCA (site AGGAAGACTTG)”: the “recombinant UMI read abundance (log10)” value came to 0. Turning to “ACGAGAACATGGACCGGTTTTCCCGGTAATCCGTATTTGAG (site ACAAGAACTCT)”, the “recombinant UMI read abundance (log10)” value was 2.65.

Turning to “ACGAGAACATGGACCGGTTTTCCCGGTAATCCGTATTTGAG (site ACCAGAACTCT)”, the “recombinant UMI read abundance (log10)” value amounted to 0.752.

For the sequence “ACGAGAACATGGACCGGTTTTCCCGGTAATCCGTATTTGAG (site ACGAGAACTCT)”, the “recombinant UMI read abundance (log10)” value was 2.59.

For the sequence “ACGAGAACATGGACCGGTTTTCCCGGTAATCCGTATTTGAG (site ACTAGAACTCT)”, the “recombinant UMI read abundance (log10)” value was 0.873. On to “ACGATTGCATGGACCGGTTTTCCCGGTAATCCGTATTTGGA (site ACGATTGCTTC)”, for which the “recombinant UMI read abundance (log10)” value came to 1.97. Regarding “ACGCACACATGGACCGGTTTTCCCGGTAATCCGTATTTGAA (site ACGCACACTTT)”, the “recombinant UMI read abundance (log10)” value amounted to 2.08. With “ACGCATCCATGGACCGGTTTTCCCGGTAATCCGTATTTGAC (site ACACATCCTGT)”, the “recombinant UMI read abundance (log10)” value was 1.31. With “ACGCATCCATGGACCGGTTTTCCCGGTAATCCGTATTTGAC (site ACCCATCCTGT)”, the “recombinant UMI read abundance (log10)” value turned out to be 0. As for “ACGCATCCATGGACCGGTTTTCCCGGTAATCCGTATTTGAC (site ACGCATCCTGT)”, the figure is 1.8; as for “ACGCATCCATGGACCGGTTTTCCCGGTAATCCGTATTTGAC (site ACTCATCCTGT)”, 0; as for “ACGCCCTCATGGACCGGTTTTCCCGGTAATCCGTATTTGGG (site ACGCCCTCTCC)”, 0.119. Take “ACGCGCCCATGGACCGGTTTTCCCGGTAATCCGTATTTGGT (site ACGCGCCCTAC)”: the “recombinant UMI read abundance (log10)” value turned out to be 0.771.

On to “ACGCGGACATGGACCGGTTTTCCCGGTAATCCGTATTTGCA (site ACGCGGACTTG)”, for which the “recombinant UMI read abundance (log10)” value was 2.76. The value for “ACGCGGCCATGGACCGGTTTTCCCGGTAATCCGTATTTGCA (site ACGCGGCCTTG)” was 1.1.

“ACGCGTTCATGGACCGGTTTTCCCGGTAATCCGTATTTGCG (site ACGCGTTCTCG)”: the “recombinant UMI read abundance (log10)” value was 1.8. On to “ACGGCATCATGGACCGGTTTTCCCGGTAATCCGTATTTGCA (site ACAGTATCTTG)”, for which the “recombinant UMI read abundance (log10)” value was 1.47. Regarding “ACGGCATCATGGACCGGTTTTCCCGGTAATCCGTATTTGCA (site ACGGCATCTTG)”, the “recombinant UMI read abundance (log10)” value was determined as 1.77. The value for “ACGGCTACATGGACCGGTTTTCCCGGTAATCCGTATTTGAC (site ACGGCTACTGT)” was 2.45; that for “ACGGGACCATGGACCGGTTTTCCCGGTAATCCGTATTTGTA (site ACGGGACCTTA)” was 0.00398; that for “ACGGGCACATGGACCGGTTTTCCCGGTAATCCGTATTTGGT (site ACGGGCACTAC)” was 0.805. As for “ACGGTATCATGGACCGGTTTTCCCGGTAATCCGTATTTGCG (site ACAGTATCTTG)”, the “recombinant UMI read abundance (log10)” value worked out at 2.27.

In the case of “ACGGTATCATGGACCGGTTTTCCCGGTAATCCGTATTTGCG (site ACGGTATCTCG)”, the “recombinant UMI read abundance (log10)” value stood at 3.15. On to “ACGGTATCATGGACCGGTTTTCCCGGTAATCCGTATTTGGG (site ACGGTATCTCC)”, for which the “recombinant UMI read abundance (log10)” value came out at 1.62. Consider “ACGGTATCATGGACCGGTTTTCCCGGTAATCCGTATTTGTA (site ACAGTATCTTG)”, for which the “recombinant UMI read abundance (log10)” value stood at 2.09. In the case of “ACGGTATCATGGACCGGTTTTCCCGGTAATCCGTATTTGTA (site ACGGTATCTTA)”, the “recombinant UMI read abundance (log10)” value was 3.09. As for “ACGGTCACATGGACCGGTTTTCCCGGTAATCCGTATTTGTA (site ACGGTCACTTA)”, the figure is 1.59.

Turning to “ACGGTTTCATGGACCGGTTTTCCCGGTAATCCGTATTTGTG (site ACGGTTTCTCA)”, the “recombinant UMI read abundance (log10)” value stood at 2.4. As for “ACGTACTCATGGACCGGTTTTCCCGGTAATCCGTATTTGGA (site ACGTACTCTTC)”, the figure is 2.95; as for “ACGTAGGCATGGACCGGTTTTCCCGGTAATCCGTATTTGAA (site ACGTAGGCTTT)”, 1.96; as for “ACGTAGGCATGGACCGGTTTTCCCGGTAATCCGTATTTGGC (site AAGTAGGCTGC)”, 1.32.

In the case of “ACGTAGGCATGGACCGGTTTTCCCGGTAATCCGTATTTGGC (site ACGTAGGCTGC)”, the “recombinant UMI read abundance (log10)” value came out at 2.6. As to “ACGTAGGCATGGACCGGTTTTCCCGGTAATCCGTATTTGGC (site AGGTAGGCTGC)”, the “recombinant UMI read abundance (log10)” value came to 1.06. As for “ACGTAGGCATGGACCGGTTTTCCCGGTAATCCGTATTTGGC (site ATGTAGGCTGC)”, the figure is 1.21.

As for “ACGTGAGCATGGACCGGTTTTCCCGGTAATCCGTATTTGGA (site ACGTGAGCTTC)”, the “recombinant UMI read abundance (log10)” value was 1.78. With “ACGTTAGCATGGACCGGTTTTCCCGGTAATCCGTATTTGTG (site ACGTTAGCTCA)”, the “recombinant UMI read abundance (log10)” value stood at 1.84.

“ACGTTAGCATGGACCGGTTTTCCCGGTAATCCGTATTTGTG (site CCGTTAGCTCA)”: the “recombinant UMI read abundance (log10)” value is 0.742.

“ACGTTAGCATGGACCGGTTTTCCCGGTAATCCGTATTTGTG (site GCGTTAGCTCA)”: the “recombinant UMI read abundance (log10)” value is 0.298.

With “ACGTTAGCATGGACCGGTTTTCCCGGTAATCCGTATTTGTG (site TCGTTAGCTCA)”, the “recombinant UMI read abundance (log10)” value is 0.526. With “ACGTTCACATGGACCGGTTTTCCCGGTAATCCGTATTTGCC (site ACGTTCACTGG)”, the “recombinant UMI read abundance (log10)” value came to 2.69. Turning to “ACGTTGCCATGGACCGGTTTTCCCGGTAATCCGTATTTGTT (site ACGTTGCCTAA)”, the “recombinant UMI read abundance (log10)” value is 0.363.

For “ACTAAAACATGGACCGGTTTTCCCGGTAATCCGTATTTGAG (site ACTAAAACTCT)”, the “recombinant UMI read abundance (log10)” value was 1.77.
